Non-standard residues stand in square brackets, D forms with d. No end group written: not given here.
Assays:
E. coli O157:H7 = assay: Biofilm inhibition, static microtitre plate assay, crystal violet (Table 17); conditions: BM2 minimal media
[1] = system: S. aureus (methicillin resistant clinical isolate C623); assay: Biofilm inhibition, static microtitre plate assay, crystal violet (Table 17; FIG. 19); conditions: 10% tryptic soy broth with 0.1% glucose
P. aeruginosa (PAO1) = assay: as above; conditions: BM2 minimal media
[2] = system: Salmonella typhimurium (ATCC 14028); assay: Biofilm inhibition, static microtitre plate assay, crystal violet (Table 17); conditions: BM2 minimal media
E. coli (Ec) [3] = format: cell-based; conditions: Ec
PBMCs = assay: Cytotoxicity towards PBMCs, lactate dehydrogenase (LDH) release assay (Tables 6, 7); conditions: SPOT synthesized peptide ~25 μM, PBMCs from 3 human donors; Table 6
[4] = system: Staphylococcus pseudintermedius (Sp); format: cell-based
Experimental: (§1) The following strains were assessed vs. Staphylococcus epidermidis (Se), Pseudomonas aeruginosa (Pa), Streptococcus dysgalactiae (Sd), Pasteurella multocida (Pm), Streptococcus agalactiae (Sa), Streptococcus uberis (Su), Streptococcus suis (Ss), Mannheimia haemolytica (Mh), Bordatella bronchiseptica (Bb), Histophilus somnus (Hs), and Staphylococcus pseudintermedius (Sp) (Table 18) for Minimal Inhibitory Concentrations (MIC). Italics=excellent activity (less than or equal to 4 μg/ml).

[5] = system: Streptococcus agalactiae (Sa); format: cell-based
Experimental: as §1

[6] = system: Pseudomonas aeruginosa (Pa); format: cell-based
Experimental: as §1

Streptococcus suis (Ss) [7] = format: cell-based
Experimental: as §1

[8] = system: Streptococcus uberis (Su); format: cell-based
Experimental: as §1

[9] = system: Streptococcus dysgalactiae (Sd); format: cell-based
Experimental: as §1

[10] = system: Pasteurella multocida (Pm); format: cell-based
Experimental: as §1

[11] = system: Bordatella bronchiseptica (Bb); format: cell-based
Experimental: as §1

[12] = system: Mannheimia haemolytica (Mh); format: cell-based
Experimental: as §1

[13] = system: Staphylococcus epidermidis (Se); format: cell-based
Experimental: as §1

Histophilus somnus (Hs) [14] = format: cell-based
Experimental: as §1

S. aureus (Sau) [15] = format: cell-based; conditions: Sau
Experimental: (§2) The same strains as in Table 18 were assessed for Minimal Biofilm Inhibitory Concentrations (MBIC) (Table 19). Italics=excellent activity (less than or equal to 4 μg/ml). ND=Not determined. Peptides 3013, 3015 and 3016 inhibited biofilm growth in the largest number of bacterial strains (5, 5 and 6 out of 13 strains, respectively).
(§3) In addition, several peptides expressed preferential activity vs. biofilms (MBIC) cf. planktonic cells (MIC) (Table 20).

E. coli (Ec) [16] = format: cell-based; conditions: Ec; remark: listed apart in the source
Experimental: as §2, §3

[17] = system: planktonic methicillin resistant S. aureus; assay: microbe, parasite or virus in culture; format: cell-based, Staphylococcus aureus; conditions: planktonic methicillin resistant
[18] = system: Staphylococcus pseudintermedius (Sp); format: cell-based; remark: listed apart in the source
Experimental: as §2

[19] = system: Streptococcus agalactiae (Sa); format: cell-based; remark: listed apart in the source
Experimental: as §2

[20] = system: Pseudomonas aeruginosa (Pa); format: cell-based; remark: listed apart in the source
Experimental: as §2

Streptococcus suis (Ss) [21] = format: cell-based; remark: listed apart in the source
Experimental: as §2

[22] = system: Streptococcus uberis (Su); format: cell-based; remark: listed apart in the source
Experimental: as §2

[23] = system: Streptococcus dysgalactiae (Sd); format: cell-based; remark: listed apart in the source
Experimental: as §2

[24] = system: Pasteurella multocida (Pm); format: cell-based; remark: listed apart in the source
Experimental: as §2

[25] = system: Bordatella bronchiseptica (Bb); format: cell-based; remark: listed apart in the source
Experimental: as §2

[26] = system: Mannheimia haemolytica (Mh); format: cell-based; remark: listed apart in the source
Experimental: as §2

[27] = system: Staphylococcus epidermidis (Se); format: cell-based; remark: listed apart in the source
Experimental: as §2

Histophilus somnus (Hs) [28] = format: cell-based; remark: listed apart in the source
Experimental: as §2

S. aureus (Sau) [29] = format: cell-based; conditions: Sau; remark: listed apart in the source

## IWLRLKVVLKRK (not fully specified; also: D-amino acid(s), positions not given here) [Peptide D-3006]
E. coli O157:H7
  peptide concentration that inhibited more than 90% of adhered biofilm biomass, E. coli (O157:H7): 2 µM
[1]
  peptide concentration that inhibited more than 90% of adhered biofilm biomass, S. aureus (C623): 4 µM
P. aeruginosa (PAO1)
  peptide concentration that inhibited more than 90% of adhered biofilm biomass, P. aeruginosa (PAO1): 2 µM
[2]
  peptide concentration that inhibited more than 90% of adhered biofilm biomass, S. typhimurium (ATCC 14028): 2 µM

## KIVIRIILQVIK-NH2 [Peptide 3015, KIVIRIILQVIK]
E. coli (Ec) [3]
  MIC E. coli: >64 µg/mL
  MIC Ec: >64 µg/mL
PBMCs
  % Toxicity (LDH Release): −3.8%
[4]
  MIC Sp: 16 µg/mL
[5]
  MIC Sa: >64 µg/mL
[6]
  MIC Pa: 64 µg/mL
Streptococcus suis (Ss) [7]
  MIC Ss: 64 µg/mL
[8]
  MIC Su: 64 µg/mL
[9]
  MIC Sd: 32 µg/mL
[10]
  MIC Pm: 64 µg/mL
[11]
  MIC Bb: 64 µg/mL
[12]
  MIC Mh: >64 µg/mL
[13]
  MIC Se: >64 µg/mL
Histophilus somnus (Hs) [14]
  MIC Hs: >64 µg/mL
S. aureus (Sau) [15]
  MBIC: 64 µg/mL
  MBIC S. aureus: 64 µg/mL
E. coli (Ec) [16]
  MBIC: 64 µg/mL
  MBIC E. coli: 64 µg/mL
[17]
  MIC (μM) MHB: 64 µM
  MIC (μM) TSB with 1% Glucose: >64 µM
[18]
  MBIC: 8 µg/mL
[19]
  MBIC: >64 µg/mL
[20]
  MBIC: 32 µg/mL
Streptococcus suis (Ss) [21]
  MBIC: 64 µg/mL
[22]
  MBIC: 4 µg/mL
[23]
  MBIC: 4 µg/mL
[24]
  MBIC: 1 µg/mL
[25]
  MBIC: >64 µg/mL
[26]
  MBIC: 16 µg/mL
[27]
  MBIC: 2 µg/mL
Histophilus somnus (Hs) [28]
  MBIC: 16 µg/mL
S. aureus (Sau) [29]
  MIC S. aureus: >64 µg/mL
  MIC Sau: >64 µg/mL

## KRKLVVKLRLWI ([dK][dR][dK][dL][dV][dV][dK][dL][dR][dL][dW][dI]) [RI-3006]
E. coli O157:H7
  peptide concentration that inhibited more than 90% of adhered biofilm biomass, E. coli (O157:H7): 4 µM
[1]
  peptide concentration that inhibited more than 90% of adhered biofilm biomass, S. aureus (C623): 8 µM
P. aeruginosa (PAO1)
  peptide concentration that inhibited more than 90% of adhered biofilm biomass, P. aeruginosa (PAO1): 4 µM
[2]
  peptide concentration that inhibited more than 90% of adhered biofilm biomass, S. typhimurium (ATCC 14028): 4 µM

## KVVWIKVKIKLV ([dK][dV][dV][dW][dI][dK][dV][dK][dI][dK][dL][dV]) [RI-3007]
E. coli O157:H7
  peptide concentration that inhibited more than 90% of adhered biofilm biomass, E. coli (O157:H7): 16 µM
[1]
  peptide concentration that inhibited more than 90% of adhered biofilm biomass, S. aureus (C623): 16 µM
P. aeruginosa (PAO1)
  peptide concentration that inhibited more than 90% of adhered biofilm biomass, P. aeruginosa (PAO1): 32 µM
[2]
  peptide concentration that inhibited more than 90% of adhered biofilm biomass, S. typhimurium (ATCC 14028): 16 µM

## LAGLIVKWAGVR-NH2 [Peptide 3017, LAGLIVKWAGVR]
E. coli (Ec) [3]
  MIC E. coli: >64 µg/mL
  MIC Ec: >64 µg/mL
PBMCs
  % Toxicity (LDH Release): 5.9%
[4]
  MIC Sp: >64 µg/mL
[5]
  MIC Sa: 32 µg/mL
[6]
  MIC Pa: >64 µg/mL
Streptococcus suis (Ss) [7]
  MIC Ss: >64 µg/mL
[8]
  MIC Su: 64 µg/mL
[9]
  MIC Sd: >64 µg/mL
[10]
  MIC Pm: >64 µg/mL
[11]
  MIC Bb: >64 µg/mL
[12]
  MIC Mh: >64 µg/mL
[13]
  MIC Se: >64 µg/mL
Histophilus somnus (Hs) [14]
  MIC Hs: >64 µg/mL
S. aureus (Sau) [15]
  MBIC: 4 µg/mL
  MBIC S. aureus: 4 µg/mL
E. coli (Ec) [16]
  MBIC: >64 µg/mL
  MBIC E. coli: >64 µg/mL
[17]
  MIC (μM) MHB: >64 µM
  MIC (μM) TSB with 1% Glucose: >64 µM
[18]
  MBIC: 64 µg/mL
[19]
  MBIC: >64 µg/mL
[20]
  MBIC: >64 µg/mL
Streptococcus suis (Ss) [21]
  MBIC: >64 µg/mL
[22]
  MBIC: 16 µg/mL
[23]
  MBIC: >64 µg/mL
[24]
  MBIC: >64 µg/mL
[25]
  MBIC: >64 µg/mL
[26]
  MBIC: >64 µg/mL
[27]
  MBIC: >64 µg/mL
Histophilus somnus (Hs) [28]
  MBIC: 32 µg/mL
S. aureus (Sau) [29]
  MIC S. aureus: >64 µg/mL
  MIC Sau: >64 µg/mL

## LWQLWLKLKLKG-NH2 [Peptide 3013, LWQLWLKLKLKG]
E. coli (Ec) [3]
  MIC E. coli: >64 µg/mL
  MIC Ec: >64 µg/mL
PBMCs
  % Toxicity (LDH Release): 14.1%
[4]
  MIC Sp: <1 µg/mL
[5]
  MIC Sa: 2 µg/mL
[6]
  MIC Pa: >64 µg/mL
Streptococcus suis (Ss) [7]
  MIC Ss: 64 µg/mL
[8]
  MIC Su: 4 µg/mL
[9]
  MIC Sd: 2 µg/mL
[10]
  MIC Pm: 32 µg/mL
[11]
  MIC Bb: 16 µg/mL
[12]
  MIC Mh: >64 µg/mL
[13]
  MIC Se: 2 µg/mL
Histophilus somnus (Hs) [14]
  MIC Hs: 2 µg/mL
S. aureus (Sau) [15]
  MBIC: 32 µg/mL
  MBIC S. aureus: 32 µg/mL
E. coli (Ec) [16]
  MBIC: >64 µg/mL
  MBIC E. coli: >64 µg/mL
[17]
  MIC (μM) MHB: 32 µM
  MIC (μM) TSB with 1% Glucose: >64 µM
[18]
  MBIC: 1 µg/mL
[19]
  MBIC: 32 µg/mL
[20]
  MBIC: >64 µg/mL
Streptococcus suis (Ss) [21]
  MBIC: 16 µg/mL
[22]
  MBIC: 8 µg/mL
[23]
  MBIC: 2 µg/mL
[24]
  MBIC: 2 µg/mL
[25]
  MBIC: >64 µg/mL
[26]
  MBIC: >64 µg/mL
[27]
  MBIC: >64 µg/mL
Histophilus somnus (Hs) [28]
  MBIC: 4 µg/mL
S. aureus (Sau) [29]
  MIC S. aureus: >64 µg/mL
  MIC Sau: >64 µg/mL

## QLARLARVVWGL-NH2 [Peptide 3010, QLARLARVVWGL]
E. coli (Ec) [3]
  MIC E. coli: >64 µg/mL
  MIC Ec: >64 µg/mL
PBMCs
  % Toxicity (LDH Release): −2.4%
[4]
  MIC Sp: 64 µg/mL
[5]
  MIC Sa: >64 µg/mL
[6]
  MIC Pa: >64 µg/mL
Streptococcus suis (Ss) [7]
  MIC Ss: >64 µg/mL
[8]
  MIC Su: 64 µg/mL
[9]
  MIC Sd: 32 µg/mL
[10]
  MIC Pm: >64 µg/mL
[11]
  MIC Bb: >64 µg/mL
[12]
  MIC Mh: >64 µg/mL
[13]
  MIC Se: >64 µg/mL
Histophilus somnus (Hs) [14]
  MIC Hs: 64 µg/mL
S. aureus (Sau) [15]
  MBIC: 64 µg/mL
  MBIC S. aureus: 64 µg/mL
E. coli (Ec) [16]
  MBIC: 32 µg/mL
  MBIC E. coli: 32 µg/mL
[17]
  MIC (μM) MHB: >64 µM
  MIC (μM) TSB with 1% Glucose: >64 µM
[18]
  MBIC: 64 µg/mL
[19]
  MBIC: >64 µg/mL
[20]
  MBIC: >64 µg/mL
Streptococcus suis (Ss) [21]
  MBIC: >64 µg/mL
[22]
  MBIC: 32 µg/mL
[23]
  MBIC: 16 µg/mL
[24]
  MBIC: 4 µg/mL
[25]
  MBIC: >64 µg/mL
[26]
  MBIC: >64 µg/mL
[27]
  MBIC: >64 µg/mL
Histophilus somnus (Hs) [28]
  MBIC: 64 µg/mL
S. aureus (Sau) [29]
  MIC S. aureus: >64 µg/mL
  MIC Sau: >64 µg/mL

## RRWIRVAVILRV ([dR][dR][dW][dI][dR][dV][dA][dV][dI][dL][dR][dV]) [RI-1018, reference compound]
E. coli O157:H7
  peptide concentration that inhibited more than 90% of adhered biofilm biomass, E. coli (O157:H7): 1 µM
[1]
  peptide concentration that inhibited more than 90% of adhered biofilm biomass, S. aureus (C623): 8 µM
P. aeruginosa (PAO1)
  peptide concentration that inhibited more than 90% of adhered biofilm biomass, P. aeruginosa (PAO1): 4 µM
[2]
  peptide concentration that inhibited more than 90% of adhered biofilm biomass, S. typhimurium (ATCC 14028): 2 µM

## VLKIKVKIWVVK (not fully specified; also: D-amino acid(s), positions not given here) [Peptide D-3007]
E. coli O157:H7
  peptide concentration that inhibited more than 90% of adhered biofilm biomass, E. coli (O157:H7): 4 µM
[1]
  peptide concentration that inhibited more than 90% of adhered biofilm biomass, S. aureus (C623): 8 µM
P. aeruginosa (PAO1)
  peptide concentration that inhibited more than 90% of adhered biofilm biomass, P. aeruginosa (PAO1): 8 µM
[2]
  peptide concentration that inhibited more than 90% of adhered biofilm biomass, S. typhimurium (ATCC 14028): 4 µM
